test system: SARS-CoV-2-NLuc in A549-hACE2 cells; test: microbe, parasite or virus in culture; format: cell-based; conditions: Severe acute respiratory syndrome coronavirus 2, 48 h, read-out: MPro EC50

Row | Compound | EC50
1 | COc1ccc(Cl)c(-c2cc3[nH]c(=O)n([C@H]4CCCNC(=O)C4)c(=O)c3s2)c1 (single isomer, unassigned) [Example 24] | 142 nM
2 | O=C1C[C@@H](n2c(=O)[nH]c3cc(-c4ccccc4Cl)sc3c2=O)CCCN1 (single isomer, unassigned) [Example 22] | 155 nM
3 | COc1ccc(Cl)c(-c2cc3[nH]c(=O)n([C@@H]4CCCNC(=O)C4)c(=O)c3s2)c1 (single isomer, unassigned) [Example 23] | 12.7 nM

same assay, conditions: Severe acute respiratory syndrome coronavirus 2, 48 h; read-out: MPro EC50

Row | Compound | EC50
4 | COc1cc(-c2cc3c(s2)c(=O)n([C@@H]2CCCNC(=O)C2)c(=O)n3CC(F)F)c(Cl)cc1F [Example 43, (R)-6-(2-chloro-4-fluoro-5-methoxyphenyl)-1-(2,2-difluoroethyl)-3-(2-oxoazepan-4-yl)thieno[3,2-d]pyrimidine-2,4(1H,3H)-dione] | 34.4 nM
5 | COc1cc(-c2cc3c(s2)c(=O)n([C@@H]2CCCNC(=O)C2)c(=O)n3CC2(C#N)CC2)c(Cl)cc1F [Example 36, (R)-1-((6-(2-chloro-4-fluoro-5-methoxyphenyl)-2,4-dioxo-3-(2-oxoazepan-4-yl)-3,4-dihydrothieno[3,2-d]pyrimidin-1(2H)-yl)methyl)cyclopropane-1-carbonitrile] | < 4.07 nM
6 | O=C1CC(n2c(=O)[nH]c3cc(-c4ccccc4Cl)sc3c2=O)CCCN1 (centres unmarked) [Example 8, 6-(2-chlorophenyl)-3-(2-oxoazepan-4-yl)thieno[3,2-d]pyrimidine-2,4(1H,3H)-dione] | 61.9 nM
7 | COc1cc(-c2cc3c(s2)c(=O)n([C@@H]2CCCNC(=O)C2)c(=O)n3CCNC(C)=O)c(Cl)cc1F [Example 37, (R)—N-(2-(6-(2-chloro-4-fluoro-5-methoxyphenyl)-2,4-dioxo-3-(2-oxoazepan-4-yl)-3,4-dihydrothieno[3,2-d]pyrimidin-1(2H)-yl)ethyl)acetamide] | 170 nM
8 | COc1ccc(Cl)c(-c2cc3[nH]c(=O)n([C@H]4CCNC(=O)C4)c(=O)c3s2)c1 [Example 17, (S)-6-(2-chloro-5-methoxyphenyl)-3-(2-oxopiperidin-4-yl)thieno[3,2-d]pyrimidine-2,4(1H,3H)-dione] | 84.6 nM
9 | COc1cc(-c2cc3[nH]c(=O)n([C@@H]4CC(=O)NC[C@@H](C)C4)c(=O)c3s2)c(Cl)cc1F (single isomer, unassigned) [Example 53] | 34 nM
10 | COc1cc(-c2cc3[nH]c(=O)n(C4CCCCNC(=O)C4)c(=O)c3s2)c(Cl)cc1F (centres unmarked) [Example 58, 6-(2-chloro-4-fluoro-5-methoxyphenyl)-3-(2-oxoazocan-4-yl)thieno[3,2-d]pyrimidine-2,4(1H,3H)-dione] | 723 nM
11 | COc1cc(-c2cc3c(s2)c(=O)n([C@@H]2CCCNC(=O)C2)c(=O)n3Cc2ncn(C)n2)c(Cl)cc1F [Example 41, (R)-6-(2-chloro-4-fluoro-5-methoxyphenyl)-1-((1-methyl-11H-1,2,4-triazol-3-yl)methyl)-3-(2-oxoazepan-4-yl)thieno[3,2-d]pyrimidine-2,4(1H,3H)-dione] | 358 nM
12 | COc1cc(-c2cc3[nH]c(=O)n(C4CC(=O)NCC(C)(C)C4)c(=O)c3s2)c(Cl)cc1F (centres unmarked) [Example 55, 6-(2-chloro-4-fluoro-5-methoxyphenyl)-3-(6,6-dimethyl-2-oxoazepan-4-yl)thieno[3,2-d]pyrimidine-2,4(1H,3H)-dione] | 102 nM
13 | COc1cc(-c2cc3c(s2)c(=O)n([C@@H]2CCCNC(=O)C2)c(=O)n3CC#N)c(Cl)cc1F [Example 34, (R)-2-(6-(2-chloro-4-fluoro-5-methoxyphenyl)-2,4-dioxo-3-(2-oxoazepan-4-yl)-3,4-dihydrothieno[3,2-d]pyrimidin-1(2H)-yl)acetonitrile] | 3.03 nM
14 | O=C1C[C@H](n2c(=O)[nH]c3cc(-c4ccccc4Cl)sc3c2=O)CN1 [Example 2, 6-(2-chlorophenyl)-3-[(3S)-5-oxopyrrolidin-3-yl]-1H-thieno[3,2-d]pyrimidine-2,4-dione] | 35500 nM
15 | COc1cnc(Cl)c(-c2cc3[nH]c(=O)n([C@@H]4CCCNC(=O)C4)c(=O)c3s2)c1 [Example 44, (R)-6-(2-chloro-5-methoxypyridin-3-yl)-3-(2-oxoazepan-4-yl)thieno[3,2-d]pyrimidine-2,4(1H,3H)-dione] | 433 nM
16 | COc1cc(-c2cc3c(s2)c(=O)n([C@@H]2CCCNC(=O)C2)c(=O)n3CCC#N)c(Cl)cc1F [Example 48, (R)-3-(6-(2-chloro-4-fluoro-5-methoxyphenyl)-2,4-dioxo-3-(2-oxoazepan-4-yl)-3,4-dihydrothieno[3,2-d]pyrimidin-1(2H)-yl)propanenitrile] | 16.4 nM
17 | COc1cc(-c2cc3c(s2)c(=O)n([C@@H]2CCCNC(=O)C2)c(=O)n3C)c(Cl)cc1F [Example 32, (R)-6-(2-chloro-4-fluoro-5-methoxyphenyl)-1-methyl-3-(2-oxoazepan-4-yl)thieno[3,2-d]pyrimidine-2,4(1H,3H)-dione] | 15.6 nM
18 | N#CCCn1c(=O)n([C@@H]2CCCNC(=O)C2)c(=O)c2sc(-c3ccccc3C#N)cc21 [Example 52, (R)-2-(1-(2-cyanoethyl)-2,4-dioxo-3-(2-oxoazepan-4-yl)-1,2,3,4-tetrahydrothieno[3,2-d]pyrimidin-6-yl)benzonitrile] | 619 nM
19 | COc1ccc(Cl)c(-c2cc3[nH]c(=O)n(C4CCCNC(=O)C4)c(=O)c3s2)c1 (centres unmarked) [Example 20, 6-(2-chloro-5-methoxyphenyl)-3-(2-oxoazepan-4-yl)thieno[3,2-d]pyrimidine-2,4(1H,3H)-dione] | 56.4 nM

Row | Compound | EC50
20 | COc1ccc(Cl)c(-c2ccc3c(=O)n(C4CCCNC(=O)C4)c(=O)[nH]c3c2)c1 (centres unmarked) [Example 27, 7-(2-chloro-5-methoxyphenyl)-3-(2-oxoazepan-4-yl)quinazoline-2,4(1H,3H)-dione] | 646 nM
21 | COc1ccc(Cl)c(-c2cc3c(s2)c(=O)n([C@@H]2CCCNC(=O)C2)c(=O)n3CCC#N)c1 [Example 29, (R)-3-(6-(2-chloro-5-methoxyphenyl)-2,4-dioxo-3-(2-oxoazepan-4-yl)-3,4-dihydrothieno[3,2-d]pyrimidin-1(2H)-yl)propanenitrile] | < 5.64 nM
22 | COc1cc(-c2cc3[nH]c(=O)n([C@H]4CCNC(=O)C4)c(=O)c3s2)c(Cl)cc1F [Example 16, (S)-6-(2-chloro-4-fluoro-5-methoxyphenyl)-3-(2-oxopiperidin-4-yl)thieno[3,2-d]pyrimidine-2,4(1H,3H)-dione] | 222 nM
23 | COc1cc(-c2cc3[nH]c(=O)n([C@@H]4CCCNC(=O)C4)c(=O)c3cc2OC)c(C#N)cc1F [Example 56, (R)-5-fluoro-4-methoxy-2-(6-methoxy-2,4-dioxo-3-(2-oxoazepan-4-yl)-1,2,3,4-tetrahydroquinazolin-7-yl)benzonitrile] | 795 nM
24 | Cc1cc(-c2cccc(Cl)c2-c2cc3[nH]c(=O)n(C4CCNC(=O)C4)c(=O)c3s2)cn2ncnc12 (centres unmarked) [Example 11, 6-(2-chloro-6-(8-methyl-[1,2,4]triazolo[1,5-a]pyridin-6-yl)phenyl)-3-(2-oxopiperidin-4-yl)thieno[3,2-d]pyrimidine-2,4(1H,3H)-dione] | 1210 nM
25 | COc1ccc(C#N)c(-c2cc3[nH]c(=O)n([C@H]4CCNC(=O)C4)c(=O)c3s2)c1 [Example 26, (S)-2-(2,4-dioxo-3-(2-oxopiperidin-4-yl)-1,2,3,4-tetrahydrothieno[3,2-d]pyrimidin-6-yl)-4-methoxybenzonitrile] | 2120 nM
26 | O=C1C[C@H](n2c(=O)[nH]c3cc(-c4ccccc4Cl)sc3c2=O)CCN1 [Example 4, (R)-6-(2-chlorophenyl)-3-(2-oxopiperidin-4-yl)thieno[3,2-d]pyrimidine-2,4(1H,3H)-dione] | 978 nM
27 | Cn1cc(-c2cccc(Cl)c2-c2cc3[nH]c(=O)n(C4CCNC(=O)C4)c(=O)c3s2)c(C(F)(F)F)n1 (centres unmarked) [Example 12, 6-(2-chloro-6-(1-methyl-3-(trifluoromethyl)-1H-pyrazol-4-yl)phenyl)-3-(2-oxopiperidin-4-yl)thieno[3,2-d]pyrimidine-2,4(1H,3H)-dione] | 752 nM
28 | COc1cc(Cl)c(-c2cc3[nH]c(=O)n([C@H]4CCNC(=O)C4)c(=O)c3s2)cc1OC [Example 18, (S)-6-(2-chloro-4,5-dimethoxyphenyl)-3-(2-oxopiperidin-4-yl)thieno[3,2-d]pyrimidine-2,4(1H,3H)-dione] | 1150 nM
29 | COc1cc(-c2cc3[nH]c(=O)n([C@@H]4CC(=O)NC[C@H](C)C4)c(=O)c3s2)c(Cl)cc1F (single isomer, unassigned) [Example 54] | 20.4 nM
30 | Cc1cc(-c2cccc(Cl)c2-c2cc3[nH]c(=O)n(C4CCNC(=O)C4)c(=O)c3s2)cnn1 (centres unmarked) [Example 10, 6-(2-chloro-6-(6-methylpyridazin-4-yl)phenyl)-3-(2-oxopiperidin-4-yl)thieno[3,2-d]pyrimidine-2,4(1H,3H)-dione] | 5500 nM
31 | COc1cc(-c2cc3[nH]c(=O)n([C@@H]4CCCNC(=O)C4)c(=O)c3s2)c(Cl)cc1F [Example 30, (R)-6-(2-chloro-4-fluoro-5-methoxyphenyl)-3-(2-oxoazepan-4-yl)thieno[3,2-d]pyrimidine-2,4(1H,3H)-dione] | 7.73 nM
32 | COc1ccc(C#N)c(-c2cc3[nH]c(=O)n(C4CCCNC(=O)C4)c(=O)c3s2)c1 (centres unmarked) [Example 25, 2-(2,4-dioxo-3-(2-oxoazepan-4-yl)-1,2,3,4-tetrahydrothieno[3,2-d]pyrimidin-6-yl)-4-methoxybenzonitrile] | 432 nM
33 | O=C1C[C@@H](n2c(=O)[nH]c3cc(-c4ccccc4Cl)sc3c2=O)CN1 [Example 3, 6-(2-chlorophenyl)-3-[(3R)-5-oxopyrrolidin-3-yl]-1H-thieno[3,2-d]pyrimidine-2,4-dione] | 6830 nM
34 | CNC(=O)CCn1c(=O)n([C@@H]2CCCNC(=O)C2)c(=O)c2sc(-c3cc(OC)c(F)cc3Cl)cc21 [Example 42, (R)-3-(6-(2-chloro-4-fluoro-5-methoxyphenyl)-2,4-dioxo-3-(2-oxoazepan-4-yl)-3,4-dihydrothieno[3,2-d]pyrimidin-1(2H)-yl)-N-methylpropanamide] | 242 nM
35 | N#CCCn1c(=O)n([C@@H]2CCCNC(=O)C2)c(=O)c2sc(-c3ccccc3Cl)cc21 [Example 51, (R)-3-(6-(2-chlorophenyl)-2,4-dioxo-3-(2-oxoazepan-4-yl)-3,4-dihydrothieno[3,2-d]pyrimidin-1(2H)-yl)propanenitrile] | 98 nM

— patent US20250276979A1, “SARS-COV2 MAIN PROTEASE INHIBITORS” (Gilead Sciences, Inc., priority 2024, published 2025)
